Laboratory results taken from patent publication US12570698B2, “Stabilized peptides for covalent binding to target protein” (Dana-Farber Cancer Institute, Inc., priority 2015, dated 2026).
Bridge positions count the residues as written; N and C are the ends. Square brackets hold non-standard residues; d marks the D form. Ends that are not written are not given here. S5 = C=CCCC[C@](C)(N)C(=O)O

Key:
[1] = tested on: A375P cells; assay: Cell viability (CellTiter-Glo); format: cell-based, human; settings: 40 μM, over time
Protocol: We confirmed by LDH release assay that BIM SAHBs had no membranolytic effect on the cells (FIG. 16B). The observed cytotoxicity was instead consistent with mitochondrial apoptosis induction, as reflected by time-responsive caspase 3/7 activation (FIG. 16C) and mitochondrial cytochrome c release (FIG. 16D).
(§1) Cell Viability, LDH Release, and Caspase-3/7 Activation Assays: Cancer cells were cultured using their standard culture media containing 10% FBS and penicillin/streptomycin (A375P: DMEM; SK-MEL-2, SK-MEL-28 and MCF-7: EMEM; A549, H929: RPMI). […] Cell viability and caspase 3/7 activation was measured using CellTiter-Glo and Caspase-Glo 3/7 chemiluminescence reagents (Promega), respectively, and luminescence detected by a microplate reader (Spectramax M5, Molecular Devices). LDH release was quantified after 30 min peptide incubation by plate centrifugation at 1500 rpm for 5 min at 4° C., transfer of 100 μL cell culture media to a clear plate (Corning), incubation with 100 μL LDH reagent (Roche) for 30 min while shaking, and measurement of absorbance at 490 nm on a Spectramax M5 microplate reader.

[2] = tested on: A549; assay: Cytotoxicity and caspase 3/7 activation; format: cell-based; settings: non-melanoma line; data not shown
Protocol: as §1

[3] = tested on: H929; assay: Cytotoxicity and caspase 3/7 activation; format: cell-based; settings: non-melanoma line; data not shown
Protocol: as §1

[4] = tested on: SK-MEL-28; assay: Cytotoxicity and caspase 3/7 activation; format: cell-based; settings: BFL-1 expressing melanoma line; data not shown
Protocol: as §1

[5] = tested on: MCF7; assay: Cytotoxicity and caspase 3/7 activation; format: cell-based; settings: non-melanoma line; data not shown
Protocol: as §1

[6] = tested on: SK-MEL-2; assay: Cytotoxicity and caspase 3/7 activation; format: cell-based; settings: BFL-1 expressing melanoma line; data not shown
Protocol: as §1

[7] = target: T1, Bfl-1 (Homo sapiens, UniProt Q16548); assay: Bfl-1: Warhead SAHB conjugation assay; format: binding; settings: warhead SAHBs, reducing conditions
T1 sequence (Q16548 1-175): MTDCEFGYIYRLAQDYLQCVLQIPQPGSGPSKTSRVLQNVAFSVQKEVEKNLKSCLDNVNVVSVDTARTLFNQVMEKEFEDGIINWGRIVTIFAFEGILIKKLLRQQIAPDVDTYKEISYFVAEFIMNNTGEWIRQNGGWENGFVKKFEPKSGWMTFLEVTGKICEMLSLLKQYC
Protocol: Various warhead SAHBs were tested in conjugation assays with Bfl-1. For this series of peptides the warhead at position J was selected from those depicted below.
10 μM Bfl-1 was reduced with DTT, then incubated with 3:1 molar ratio of warhead SAHB. Samples were then combined with loading dye, run on a 12% Bis-Tris SDS-PAGE, and stained with Coomassie. The same setup was used for all antiapoptotic proteins tested.

[8] = target: T2, FLAG-MCL-1 (Homo sapiens, UniProt Q07820); assay: Competition with tBID in 293T lysates (immunoprecipitation); format: binding; settings: 5 μM biotinylated peptide, 0.25 μM tBID, 6 h RT
T2 construct: expressed in transfected cells; host or cells: 293T cells, p3×FLAG-CMV-10 vector, transient
Protocol: 293T cells were maintained in DMEM containing 10% FBS and penicillin/streptomycin, and transfections performed with 2 μg pCMV plasmid containing HA-BFL-1ΔC C4S/C19S using X-tremeGENE 9 (Roche). For lysate experiments, cells were trypsinized 24 hours post-transfection, washed with PBS, and lysed by incubation with 1% CHAPS lysis buffer (150 mM NaCl, 50 mM Tris pH 7.4, 100 mM DTT). Protein concentration of the soluble fraction was measured using a BCA kit according to manufacturer's instructions (Thermo Scientific). […] Samples were then boiled in LDS buffer and subjected to western analysis using 1:1000 dilutions of HA (Sigma-Aldrich, #12CA5) and biotin (Abcam, #53494) antibodies. To evaluate the capacity of biotinylated SAHBs to compete with tBID for interactions with BFL-1 and MCL-1, 293T cells were transfected with either HA-BFL-1ΔC C4S/C19S or FLAG-MCL-1 in the p3×FLAG-CMV-10 vector (Sigma) as above. After 24 h, cells were trypsinized, washed with PBS, lysed in 1% CHAPS buffer, and the supernatant collected for protein concentration determination by BCA kit. […] The mixtures were then subjected to HA or FLAG (Sigma-Aldrich, F7425) immunoprecipitation, followed by western analysis using 1:1000 dilutions of HA, FLAG, biotin, and BID (Santa Cruz sc-11423) antibodies. […] Cells were harvested and lysed as above, and incubated overnight with anti-HA agarose beads (Pierce). […]

[9] = target: T3, MCL-1 (Homo sapiens, UniProt Q07820); assay: SA pull-down from A375P lysates, MCL-1 western; format: binding; settings: biotinylated SAHBs
T3 construct: we incubated A375P lysates with the corresponding biotinylated BIM SAHBs; endogenous in cells; host or cells: A375P melanoma cell lysate

[10] = target: T4, HA-BFL-1ΔC C4S/C19S (Homo sapiens, UniProt Q16548, C19S/C4S); assay: Competition with tBID in 293T lysates (immunoprecipitation); format: binding; settings: 5 μM biotinylated peptide, 0.25 μM tBID, 6 h RT
T4 construct: BFL-1ΔC (aa 1-153); expressed in transfected cells; host or cells: 293T cells, pCMV plasmid, transient
T4 sequence (Q16548 1-153 C4S/C19S): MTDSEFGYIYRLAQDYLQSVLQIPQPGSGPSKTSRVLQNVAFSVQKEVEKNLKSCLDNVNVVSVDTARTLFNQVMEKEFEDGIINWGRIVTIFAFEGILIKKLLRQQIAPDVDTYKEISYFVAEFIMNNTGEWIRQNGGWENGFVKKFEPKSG
Protocol: Protein concentration of the soluble fraction was measured using a BCA kit according to manufacturer's instructions (Thermo Scientific). […] After 24 h, cells were trypsinized, washed with PBS, lysed in 1% CHAPS buffer, and the supernatant collected for protein concentration determination by BCA kit. […] Cells were harvested and lysed as above, and incubated overnight with anti-HA agarose beads (Pierce). The beads were washed 3 times with lysis buffer, eluted by boiling in LDS buffer, and subjected to western analysis with HA and biotin antibodies. […] Biotin capture was accomplished by incubating the mixture with high-capacity SA agarose (Thermo Scientific) for 2 h at 4° C., followed by centrifugation and washing the pelleted beads with 3×1 mL lysis buffer.

[11] = target: T1, Bfl-1; assay: Competitive binding assay after pre-forming the Bfl-1:NOXA disulfide bond; settings: Bfl-1:NOXA disulfide bond pre-formed
Protocol: The functional impact of the Bfl-1:NOXA disulfide bond formation was evaluated using competitive binding assays and liposomal release assays.

T2 sequence (Q07820 whole entry): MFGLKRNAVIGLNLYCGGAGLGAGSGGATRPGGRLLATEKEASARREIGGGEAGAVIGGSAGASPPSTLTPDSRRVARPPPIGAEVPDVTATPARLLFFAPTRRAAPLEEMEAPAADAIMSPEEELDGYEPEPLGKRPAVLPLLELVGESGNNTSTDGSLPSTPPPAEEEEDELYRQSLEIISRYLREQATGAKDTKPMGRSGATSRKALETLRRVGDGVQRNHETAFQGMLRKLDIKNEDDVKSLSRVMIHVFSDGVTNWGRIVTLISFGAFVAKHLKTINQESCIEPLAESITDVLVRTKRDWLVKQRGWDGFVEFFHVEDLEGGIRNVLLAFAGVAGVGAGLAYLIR

C=CC(=O)N1CCC[C@@H](C(=O)N[C@H](C(=O)N[C@@H](C)C(=O)N[C@@H](CCC(N)=O)C(=O)N[C@@H](CCC(=O)O)C(=O)N[C@@H](CC(C)C)C(=O)N[C@@H](CCCNC(=N)N)C(=O)N[C@@]2(C)CCCC=CCCC[C@@](C)(C(=O)N[C@@H](Cc3ccccc3)C(=O)N[C@@H](CC(N)=O)C(=O)N[C@@H](C)C(=O)N[C@@H](Cc3ccc(O)cc3)C(=O)N[C@@H](Cc3ccc(O)cc3)C(=O)N[C@@H](C)C(=O)N[C@@H](CCCNC(=N)N)C(=O)N[C@@H](CCCNC(=N)N)C(N)=O)NC(=O)[C@H](CC(=O)O)NC(=O)CNC(=O)[C@H]([C@@H](C)CC)NC2=O)[C@@H](C)CC)C1 [BIM SAHBA-3]
cytotoxicity compared to BIM SAHBA1 [1]: significant enhancement in cytotoxicity over time | enhancement in cytotoxicity and caspase 3/7 activation [2]: no evidence of this phenomenon | enhancement in cytotoxicity and caspase 3/7 activation [3]: no evidence of this phenomenon | enhancement in cytotoxicity and caspase 3/7 activation [4]: comparative enhancement in cytotoxicity and caspase 3/7 activation | enhancement in cytotoxicity and caspase 3/7 activation [5]: no evidence of this phenomenon | enhancement in cytotoxicity and caspase 3/7 activation [6]: comparative enhancement in cytotoxicity and caspase 3/7 activation

O=C(O)[C@H]1CCCCN1 [D-homoproline]
covalent binding efficiency [7]: less efficient

O=C(O)[C@@H]1CCCCN1 [L-homoproline]
covalent binding efficiency [7]: less efficient

CN(C)C/C=C/C(=O)O [trans-4-dimethylaminocrotonic acid]
covalent binding efficiency [7]: less efficient

BIM SAHBA: BIM SAHBA (aa 147-166), corresponding construct lacking the acrylamide-based warhead
competition with tBID for FLAG-MCL-1 [8]: equally effective at competing with tBID | binding to MCL-1 [9]: equivalent binding to anti-apoptotic MCL-1 | competition with tBID for HA-BFL-1 binding [10]: incapable of competing with tBID for HA-BFL-1 binding

NOXA SAHBA C25S: NOXA SAHBA with C25S mutation; SEQ ID NO: 128 (AELEVESATQLR[S5]FGD[S5]LNFRQKLL; staple 13-17; not fully specified)
availability of the Bfl-1 binding pocket to another FITC BH3 domain [11]: abrogated these inhibitory effects
